The results in this text go back to patent US12010996B2, “Tris-substituted biguanide compounds and their uses” (priority 2018, dated 2024).

Structures are written as SMILES. ≈ marks a conversion by molar mass, not a printed value.

What all share (assay): Antibacterial effectiveness testing, growth inhibition in BHI broth (absorbance 600 nm)
What all share (conditions): 37° C., 24 h

The test system of one assay is S. aeureus, ATCC 6538. The class given is cell-based, S. aureus. As for the experimental part:
(§1) The antibacterial effectiveness testing was run against 7 strains of bacteria using the following protocol. Protocol: […] Bacteria (either E. coli or P. aeruginosa or S. aureus or […] or K. pneumonia or A. baumanni or C. albicans) are added to all well except the control and incubated at 37° C. for 24 h. The absorbance was read at 600 nm. MIC90 was calculated as the concentration at which 90% growth inhibition is noticed. N=4 replicates for each compound and bacteria.

The next assay concerns S. marcenes, ATCC-21639. The class given is cell-based. As for the experimental part:
as §1

The next assay deals with C. albicans, ATCC1-0231. In kind it is cell-based. As for the experimental part: as §1
Another assay has as its system E. coli, ATCC-8739. In kind it is cell-based. As for the experimental part:
as §1

The next assay relates to P. aeruginosa, ATCC-9027. The class given is cell-based. As for the experimental part: (§2) The antibacterial effectiveness testing was run against 7 strains of bacteria using the following protocol. […] Bacteria (either E. coli or P. aeruginosa or S. aureus or […] or K. pneumonia or A. baumanni or C. albicans) are added to all well except the control and incubated at 37° C. for 24 h. The absorbance was read at 600 nm. MIC90 was calculated as the concentration at which 90% growth inhibition is noticed. N=4 replicates for each compound and bacteria.

A further assay deals with A. baumanni-ATCC-19606. The class given is cell-based. How it is done:
as §2

For another assay, the system named is K. pneumonia, ATCC-18804. In kind it is cell-based. How it is done: as §2
The mark [1] stands for this setting: * BHI not containing acetic acid/BSA, beginning 1000 μg/mL suspension.
Where [2] appears, read: no asterisk (BHI containing acetic acid/BSA), beginning 1000 μg/mL suspension.
The mark [3] stands for this setting: no asterisk, beginning 1000 μg/mL in DMSO/Water.

Turning to `N=C(NCCN(CCNC(=N)NC(=N)Nc1ccc(C(F)(F)F)cc1)CCNC(=N)NC(=N)Nc1ccc(C(F)(F)F)cc1)NC(=N)Nc1ccc(C(F)(F)F)cc1` [USD 19], the “MIC (S. aeureus, ATCC 6538)” value came to 3.12 µg/mL (≈ 3.76 µM) in the assay on S. aeureus, ATCC 6538 (setting [1]) and 1.5 µg/mL (≈ 1.81 µM) against S. aeureus, ATCC 6538 (setting [2]). In addition, the “MIC (S. marcenes, ATCC-21639)” value against S. marcenes, ATCC-21639 (setting [1]) stood at 3.12 µg/mL (≈ 3.76 µM); with S. marcenes, ATCC-21639 (setting [2]), 100 µg/mL (≈ 120 µM). The “MIC (C. albicans, ATCC1-0231)” value against C. albicans, ATCC1-0231 (setting [2]) was determined as 6.25 µg/mL (≈ 7.52 µM). Also, the “MIC90 (E. coli, ATCC-8739)” value against E. coli, ATCC-8739 (setting [1]) came out at 12.5 µg/mL (≈ 15 µM); in the assay with E. coli, ATCC-8739 (setting [2]), 315 µg/mL (≈ 379 µM). The “MIC90 (P. aeruginosa, ATCC-9027)” value in the assay with P. aeruginosa, ATCC-9027 (setting [1]) turned out to be 12.5 µg/mL (≈ 15 µM); in the assay on P. aeruginosa, ATCC-9027 (setting [2]), 3.15 µg/mL (≈ 3.79 µM). Also, the “MIC (A. baumanni-ATCC-19606)” value against A. baumanni-ATCC-19606 (setting [1]) amounted to 3.12 µg/mL (≈ 3.76 µM); in the assay on A. baumanni-ATCC-19606 (setting [2]) it was 1.5 µg/mL (≈ 1.81 µM). Further, in the assay on K. pneumonia, ATCC-18804 (setting [2]), the “MIC (K. pneumonia, ATCC-18804)” value came out at 25 µg/mL (≈ 30.1 µM).

As to `N=C(NCCN(CCNC(=N)NC(=N)Nc1ccc(Cl)cc1)CCNC(=N)NC(=N)Nc1ccc(Cl)cc1)NC(=N)Nc1ccc(Cl)cc1` [USD 18], the “MIC (S. aeureus, ATCC 6538)” value worked out at 0.78 µg/mL (≈ 1.07 µM) with S. aeureus, ATCC 6538 (setting [1]); 0.76 µg/mL (≈ 1.04 µM) with S. aeureus, ATCC 6538 (setting [2]); 0.76 µg/mL (≈ 1.04 µM) in the assay on S. aeureus, ATCC 6538 (setting [3]). The “MIC (S. marcenes, ATCC-21639)” value is 3.12 µg/mL (≈ 4.27 µM) against S. marcenes, ATCC-21639 (setting [1]); 50 µg/mL (≈ 68.5 µM) in the assay on S. marcenes, ATCC-21639 (setting [2]); 12.5 µg/mL (≈ 17.1 µM) with S. marcenes, ATCC-21639 (setting [3]). For the same molecule, the “MIC (C. albicans, ATCC1-0231)” value in the assay with C. albicans, ATCC1-0231 (setting [2]) is 6.25 µg/mL (≈ 8.56 µM); with C. albicans, ATCC1-0231 (setting [3]), 3.12 µg/mL (≈ 4.27 µM). The “MIC90 (E. coli, ATCC-8739)” value in the assay on E. coli, ATCC-8739 (setting [1]) amounted to 3.12 µg/mL (≈ 4.27 µM); against E. coli, ATCC-8739 (setting [2]), 3.15 µg/mL (≈ 4.31 µM); against E. coli, ATCC-8739 (setting [3]) it was 6.25 µg/mL (≈ 8.56 µM). Besides, the “MIC90 (P. aeruginosa, ATCC-9027)” value in the assay with P. aeruginosa, ATCC-9027 (setting [1]) was 6.25 µg/mL (≈ 8.56 µM); in the assay on P. aeruginosa, ATCC-9027 (setting [2]) it was 0.76 µg/mL (≈ 1.04 µM); against P. aeruginosa, ATCC-9027 (setting [3]), 0.76 µg/mL (≈ 1.04 µM). The results for the “MIC (A. baumanni-ATCC-19606)” value against A. baumanni-ATCC-19606 (setting [1]), with A. baumanni-ATCC-19606 (setting [2]) and against A. baumanni-ATCC-19606 (setting [3]) were 3.12 µg/mL (≈ 4.27 µM), 6.25 µg/mL (≈ 8.56 µM) and 0.39 µg/mL (≈ 0.534 µM), respectively. In addition, the “MIC (K. pneumonia, ATCC-18804)” value in the assay on K. pneumonia, ATCC-18804 (setting [2]) came out at 12.5 µg/mL (≈ 17.1 µM); with K. pneumonia, ATCC-18804 (setting [3]), 6.25 µg/mL (≈ 8.56 µM).

As to `Cl.Cl.N=C(NCCCCCCNC(=N)NC(=N)Nc1ccc(Cl)cc1)NC(=N)Nc1ccc(Cl)cc1` [USD 20, chlorhexidine dihydrochloride, reference compound], the “MIC (S. aeureus, ATCC 6538)” value against S. aeureus, ATCC 6538 (setting [1]) was determined as 0.78 µg/mL; with S. aeureus, ATCC 6538 (setting [3]) it was 0.76 µg/mL. Moreover, the “MIC (S. marcenes, ATCC-21639)” value in the assay with S. marcenes, ATCC-21639 (setting [1]) is 6.25 µg/mL; with S. marcenes, ATCC-21639 (setting [3]) it was 3.25 µg/mL. The “MIC (C. albicans, ATCC1-0231)” value against C. albicans, ATCC1-0231 (setting [3]) is 12.5 µg/mL. Moreover, the “MIC90 (E. coli, ATCC-8739)” value in the assay on E. coli, ATCC-8739 (setting [1]) came out at 0.78 µg/mL; against E. coli, ATCC-8739 (setting [3]) it was 1.5 µg/mL. The “MIC90 (P. aeruginosa, ATCC-9027)” value in the assay with P. aeruginosa, ATCC-9027 (setting [1]) turned out to be 25 µg/mL; in the assay on P. aeruginosa, ATCC-9027 (setting [3]) it was 1.5 µg/mL. The entries for the “MIC (A. baumanni-ATCC-19606)” value with A. baumanni-ATCC-19606 (setting [1]) and in the assay with A. baumanni-ATCC-19606 (setting [3]) were 25 µg/mL and 0.39 µg/mL, respectively. Moreover, the “MIC (K. pneumonia, ATCC-18804)” value is 25 µg/mL against K. pneumonia, ATCC-18804 (setting [1]) and 3.12 µg/mL against K. pneumonia, ATCC-18804 (setting [3]).
